The source of these data is patent US20100221709A1, “METHODS FOR IDENTIFYING AGENTS THAT MODULATE APOPTOSIS IN CELLS THAT OVER-EXPRESS A BCL-2 FAMILY MEMBER PROTEIN” (priority 2005, published 2010).

For one data set, the system named is TAMH cells. Nature of the data set: Microsequential injection-lab on valve glucose consumption and lactate production. Conditions: 10-100 nM. The format is cell-based, murine. The method, then: Detailed methods have been previously published (Schulz et al., Analyst 127:1583-1588 (2002)). Cytopore™ beads (Amersham Pharmacia Biotech, Upsala, Sweden) were hydrated in Hanks balanced salt solution (Gibco-BRL, Grand Island, N.Y.) and autoclaved according to manufacturers instructions. Beads were incubated in serum-containing media overnight. TAMH cells were transferred to the bead slurry at an approximate ratio of 50 cells per bead and grown in spinner culture flasks with gentle stirring. Beads were collected for metabolic studies at cell densities of approximately 100-500 cells/bead. For experiments, cell medium was replaced with HBSS. […]
Glucose and lactate concentrations were assayed as substrates in first-order NAD-linked enzymatic reactions, with NADH generation monitored by absorbance at 340 nm. […]
An assay cycle is initiated by packing a column of cells attached to beads in the microbioreactor, which is upstream of the LOV flow cell. […] After the stop flow period, 3 μL of the interstitial fluid from the cell column is injected through to the LOV flow cell previously loaded with glucose or lactate reagent and 340 nm absorbance recorded for 30 s after mixing. Calibration standards were used to convert endpoint absorbance to concentrations. […]

The target of a further data set is T1, Bcl-xLΔC20 (Homo sapiens, UniProt Q07817).
T1 construct: poly-His (N); made in house
T1 sequence (Q07817 1-213 limits assumed, stated change not applied): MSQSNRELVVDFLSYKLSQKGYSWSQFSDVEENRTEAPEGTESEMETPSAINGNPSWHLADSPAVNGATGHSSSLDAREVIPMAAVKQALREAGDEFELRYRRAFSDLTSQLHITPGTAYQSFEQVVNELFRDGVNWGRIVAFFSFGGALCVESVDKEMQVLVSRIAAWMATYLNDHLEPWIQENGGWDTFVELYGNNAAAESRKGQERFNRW
Kind of data set: Calcein leakage from large unilamellar vesicles (pore formation). The conditions noted are these: 12 μM. The format is biochemical.

Data set [1] has as its system mitochondria from TABX2S cells. Nature of the data set: Rhodamine 123 retention assay, isolated mitochondria. The format is biochemical, murine. Conditions: five minutes after addition. Here is the method:
(§1) Rh-123 is a cationic lipid-soluble fluorescent dye that accumulates in mitochondria in proportion to the mitochondrial membrane potential. Mitochondria were isolated from TABX2S cells (over-expressing Bcl-xL) and from control cells, prepared as described in Example 2. The isolated mitochondria were loaded with Rh-123 by incubation with 10 μM Rh-123 for 30 minutes, washing and resuspention in buffer. […] Less than 40% of Rh-123 was retained in antimycin A-treated TABX2S mitochondria, compared with greater than 80% retained in control mitochondria.

A further data set deals with control mitochondria. Described as above. Conditions: five minutes after addition. The class given is biochemical, murine. Here is the method:
as §1

Data set [2] concerns myeloma cell lines (RPMI-8226, U266, NCI-H929). The class given is cell-based, human. Conditions: 5 to 20 μg/ml. The method, then: Cell survival was assayed by exclusion of propidium iodide (PI) (10 mg/ml) by unfixed cells. Annexin V-FITC (Pharmingen) or 3,3′-dihexyloxacarbocyanine iodide (DiOC6(3)) (Molecular Probes) staining was analyzed together with PI to discriminate early apoptotic cells. Apoptotic cells were also measured as sub-G1 events among ethanol-fixed cells stained with […] PI. All cell samples were analyzed using a benchtop FACSCalibur® (Becton Dickinson, San Jose, Calif.) flow cytometer. Flow data were analyzed using MultiCycle AV software (Phoenix Flow Systems). For intracellular pH measurements, cell pellets were washed once and resuspended in 2 ml of HEPES-buffered medium (no phenol red and no serum). Carboxy-SNARF®-1 acetoxymethyl (AM) ester (Molecular Probes, 1 mM stock in DMSO, stored at −20° C.), a long wavelength fluorescent pH indicator, was added to a final concentration of 10 μM, and the cells were incubated for 30 min at 37° C. Following incubation with SNARF®-1 AM, cells were sedimented and the pellets were held on ice. Immediately before analysis, pellets were resuspended in Earle's balanced salt solution (experimental buffer) or high-[K^+] buffer containing nigericin (calibration samples).

For data set [3], the system named is TAMH hepatocyte and RPMI-8226 myeloma cell lines. Nature of the data set: O2 consumption, Clark electrode. The format is cell-based. Conditions: 10 μM. The method, then:
Respiratory rates of both cell lines were maintained through repeated additions of 10 μM 2-OMeAA, to a final concentration of 90 μM (FIG. 7A). […] The metabolic response to hypoxia is dominated by a shift to glycolytic metabolism characterized by increased rates of glucose uptake and reductive conversion of pyruvate to lactic acid. Real-time glucose consumption and lactate production by TAMH cells grown on microcarrier beads were monitored using a microsequential injection-lab on valve (μSI-LOV) system (Schulz et al., Analyst 127:1293-1298 (2002)). […] Since 2-OMeAA has no effect on cellular respiration at these concentrations, 2-OMeAA induces aerobic glycolysis in TAMH cells. The glycolytic response to 2-OMeAA was proportional to cellular Bcl-xL protein expression (FIG. 7C).

Method for Bcl-xLΔC20: The Bcl-xL protein has reversible pore-forming activity. Recombinant human Bcl-xL lacking the C-terminal 20-residue membrane anchor sequence, Bcl-xLΔC20, forms pores in large unilamellar vesicles. A reporter, calcein, can leak out of the vesicles through these pores.
Large unilamellar vesicles composed of 60% dioleoylphosphatidylcholine and 40% oleoylphosphatidylglycerol were prepared by the extrusion method of Mayer et al. (Biochim. Biophys. Acta 858:161-168 (1986)). Briefly, a dry film of lipid was resuspended in an aqueous solution containing 40 mM calcein (Molecular Probes, Eugene, Oreg.), 25 mM KCl and 10 mM HEPES (pH 7.0). […] The size of the vesicle suspension was measured by a Coulter N4 Plus-Sizer to confirm that the mean diameter of the vesicle sample was close to the expected size (100 nm). The osmolalities of all solutions were measured in a cryoscopic osmometer (Wescor Inc., Logan, Utah) and adjusted to 0.21 Osmol/kg by the addition of sodium chloride, as necessary. Lipid concentration was measured as described previously (Stewart, Anal. Biochem. 104:10-14 (1989)).
Calcein leakage was determined by adding 2-4 μg of purified Bcl-xLΔC20 (5 μg/ml, 161 nM) to a solution of 100 mM NaCl, 10 mM HEPES (pH 5.0) containing the large unilamellar vesicles (50 μM final lipid concentration) described above. […]

Take antimycin A: the “glucose uptake and lactate production” value in the data set on TAMH cells is “increased glucose uptake and lactate production”. For the same substance, the Bcl-xL pore-forming activity entry on Bcl-xLΔC20 was “completely blocked”. For the same substance, the Rh-123 retained result was “Less than 40%” in data set [1] and “greater than 80%” with control mitochondria. Further, the “cytotoxicity, PI exclusion” value in data set [2] is on record as “sensitive”. For the same substance, the “respiration dampened by” value in data set [3] is listed as over 90%.
